This is an account of results in patent publication US20220323325A1, “COMPOSITIONS COMPRISING DISSUBSTITUTE TEREPHTHALATES AND ALSO LIGHT PROECTION FILTER SUBSTANCES, DEODORANT AND/OR ANTIPERSPIRANT ACTIVE INGREDIENTS” (Evonik Operations GmbH, priority 2019, published 2022).

This series can be described thus: Dissolution capacity of UV light protection filters. Type of series: physicochemical. The conditions noted are these: 22° C., percentage by weight; for dissolution capacity for BEMT (maximal soluble amount): Bis-Ethylhexyloxyphenol Methoxyphenyl Triazine in the compound as solvent; for dissolution capacity for BMDM (maximal soluble amount): Butyl Methoxydibenzoylmethane in the compound as solvent; for dissolution capacity for EHT (maximal soluble amount): Ethylhexyl Triazone in the compound as solvent. An excerpt:
To test the dissolution capacity of UV light protection filters, three representative UVA or UVB light protection filters were selected representatively. These are: • Butyl Methoxydibenzoylmethane (BMDM) • Ethylhexyl Triazone (EHT) • Bis-Ethylhexyloxyphenol Methoxyphenyl Triazine (BEMT).
To determine the dissolution capacity for these three UV light protection filters, a certain amount (50 g) of one of the compounds according to the invention was initially charged in each case and temperature-controlled at 22° C. A percentage by weight of a UV light protection filter was added and stirred until this amount had fully and homogeneously dissolved. This procedure was repeated until the maximal soluble amount of the UV light protection filter had been exceeded. […] If the maximum concentration had been roughly determined in this manner, a fine determination of the concentration range was repeated around this maximum concentration using smaller weighed amounts of the UV light protection filter.

For `CCCCCCCC(=O)OCCOc1ccccc1` [2-Phenoxyethyl octanoate, reference compound], the “dissolution capacity for BEMT (maximal soluble amount)” value turned out to be 11%, the “dissolution capacity for BMDM (maximal soluble amount)” value was 18% and the “dissolution capacity for EHT (maximal soluble amount)” value amounted to 6%.
Taken in the same sequence, the figures for `CC(C)CCOC(=O)c1ccc(C(=O)OCCC(C)C)cc1` [Di(iso)pentyl terephthalate] were 13%, 22% and 14%.
Turning to `CCCCOC(=O)c1ccc(C(=O)OCCCC)cc1` [Di(n-)butane terephthalate], the “dissolution capacity for BEMT (maximal soluble amount)” value is on record as 23%, the “dissolution capacity for BMDM (maximal soluble amount)” value came out at 23% and the “dissolution capacity for EHT (maximal soluble amount)” value stood at 18%.
